Assay results as given in article PMC6321231, “Synthesis and Anti-Inflammatory Activities of Phloroglucinol-Based Derivatives” (Molecules, 2018).

Tests used:
iNOS = assay: Assay for iNOS inhibition (nitrite by Griess reagent) in LPS-induced macrophages; assay type: cell-based; conditions: Mus musculus, RAW264.7; LPS-induced RAW 264.7 macrophages; NA = not active at 50 µM
Description: The assay was performed in mouse macrophages (RAW264.7, obtained from ATCC)) cultured in phenol red free RPMI medium supplemented with 10% bovine calf serum and 100 U/mL penicillin G sodium, and 100 μg/mL streptomycin at 37 °C in an atmosphere of 5% CO2 and 95% humidity. Cells were seeded in 96-well plates (50,000 cells/well) and incubated for 24 h for a confluency of 75% or more. Test samples diluted in serum free medium were added, and after 30 min of incubation, LPS (5 μg/mL) was added and cells were further incubated for 24 h. The concentration of nitric oxide (NO) was determined by measuring the level of nitrite in the cell culture supernatant by using Griess reagent. Percent inhibition of nitrite production by the test compound was calculated in comparison to the vehicle control. IC50 values were obtained from concentration response curves. Parthenolide was used as a positive control.

NF-κB = assay: Assay for NF-κB inhibition (luciferase reporter) in PMA-induced SW1353 cells; assay type: cell-based; conditions: PMA-induced human chondrosarcoma cells (SW1353); NA = not active at 100 µM
Description: The assay was performed in human chondrosarcoma cells (SW1353, obtained from American Type Culture Collection (ATCC), Manassas, VA, USA). Cells were cultured in 1:1 mixture of DMEM/F12 supplemented with 10% fetal bovine serum (FBS), 100 U/mL penicillin G sodium, and 100 μg/mL streptomycin at 37 °C in an atmosphere of 5% CO2 and 95% humidity. Cells (1.2 × 10^7) were washed once in an antibiotic and FBS-free DMEM/F12, and then resuspended in 500 μL of antibiotic-free DMEM/F12 containing 2.5% FBS. NF-κB luciferase plasmid construct was added to the cell suspension at a concentration of 50 μg/mL and incubated for 5 min at room temperature. The cells were electroporated at 160 V and one 70-ms pulse using BTX disposable cuvettes model 640 (4-mm gap) in a BTX Electro Square Porator T 820 (BTX I, San Diego, CA, USA). The transfected cells were plated to the wells of 96-well plates at a density of 1.25 × 10^5 cells per well. After 24 h, cells were treated with different concentrations of test compound for 30 min before the addition of PMA (70 ng/mL) and incubated for 8 h. Luciferase activity was measured using the Luciferase Assay kit (Promega). Light output was detected on a SpectraMax plate reader. Percent inhibition of luciferase activity was calculated as compared to vehicle control, and IC50 values were obtained from concentration response curves. Parthenolide was used as positive control.

Cryptococcus neoformans = system: Cryptococcus neoformans; design: method as in PMID 27584935; conditions: against Cryptococcus neoformans; cited from earlier work

IC50 (iNOS) [µM]	IC50 (NF-κB) [µM]	Compound	in vitro antifungal activity (Cryptococcus neoformans)
19.5 ± 0.7	37.5 ± 3.5	CC(C)C(=O)c1c(O)cc(O)c(Cc2ccc(Br)cc2)c1O [Compound 4, 1-[3-(4-Bromo-benzyl)-2,4,6-trihydroxy-phenyl]-2-methyl-propan-1-one]	
	90 ± 14.1	CC(C)C(=O)c1c(O)cc(O)cc1O [Compound 3]	
50	29 ± 15.5	COCOc1cc(OCOC)c(C(=O)C(C)C)c(O)c1Cc1ccc(Br)cc1 [Compound 5, 1-[3-(4-Bromo-benzyl)-2-hydroxy-4,6-bis-methoxymethoxy-phenyl]-2-methyl-propan-1-one]	
19 ± 1.4	85 ± 21.2	CC(C)C(=O)c1c(O)cc(O)c(Cc2ccc(Cc3c(O)cc(O)c(C(=O)C(C)C)c3O)cc2)c1O [Compound 6, 2-Methyl-1-{2,4,6-trihydroxy-3-[4-(2,4,6-trihydroxy-3-isobutyryl-benzyl)-benzyl]-phenyl}-propan-1-one]	
19 ± 1.4	34 ± 8.5	CC(=O)c1c(O)cc(O)c(C(C)=O)c1O [Compound 2]	potent
49 ± 1.4		CC(C)C(=O)c1c(O)cc(O)c(Cc2ccc(CN3CCCCC3)cc2)c1O [Compound 7, 2-Methyl-1-[2,4,6-trihydroxy-3-(4-piperidin-1-ylmethyl-benzyl)-phenyl]-propan-1-one]	
2.5 ± 0.2	20.5 ± 2.9	C=C1C(=O)O[C@H]2[C@H]1CC/C(C)=C/CC[C@@]1(C)O[C@@H]21 [Parthenolide, reference compound]	
